pKi: −log10 of the molar value. Where a SMILES comes first, the peptide text is derived from it. The star is where a group is joined. X1 = CCCN1C(=O)C2NC(c3ccc(OCC(=O)NCCNC(=O)C(N)CC(=O)*)cc3)=NC2N(CCC)C1=O; X2 = O=C(Cc1ccc(Nc2ncnc3c2ncn3[C@@H]2O[C@H](CO)[C@@H](O)[C@H]2O)cc1)*

The target of one experiment is Substance-P receptor (Rattus norvegicus, UniProt P14600). Description: Ability to inhibit the binding of [125I]physalaemin to the SP receptors in rat telencephalon slices.
The next experiment deals with Adenosine receptor (Rattus norvegicus, UniProt P29276+P25099+P30543+P28647). Description: Ability to inhibit the binding of [3H]N6-phenylisopropyl adenosine to adenosine receptor in rat cerebral cortex membranes. It is filed as cell membranes, Membrane.

Sequence of Substance-P receptor (P14600 whole entry): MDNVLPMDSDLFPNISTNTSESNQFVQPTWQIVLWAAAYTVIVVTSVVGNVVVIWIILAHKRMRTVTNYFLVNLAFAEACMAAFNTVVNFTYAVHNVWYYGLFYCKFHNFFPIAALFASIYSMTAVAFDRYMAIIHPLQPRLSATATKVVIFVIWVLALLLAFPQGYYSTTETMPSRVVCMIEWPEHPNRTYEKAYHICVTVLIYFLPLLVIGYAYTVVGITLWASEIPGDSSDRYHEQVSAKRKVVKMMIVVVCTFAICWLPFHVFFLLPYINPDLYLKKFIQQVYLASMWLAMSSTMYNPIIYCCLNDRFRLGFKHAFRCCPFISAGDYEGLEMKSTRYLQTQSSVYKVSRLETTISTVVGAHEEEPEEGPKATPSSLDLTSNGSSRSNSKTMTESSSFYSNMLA

On Substance-P receptor, H-QFFGLM-NH2 gave a pKi of 6.35. As for `CNC(=O)Cc1ccc(Nc2ncnc3c2ncn3C2O[C@H](CO)[C@@H](O)[C@H]2O)cc1` (stereo not given in full), on Substance-P receptor, the negative-log Ki (pKi) was under 5.00.

As for `CSCC[C@H](NC(=O)[C@H](CC(C)C)NC(=O)CNC(=O)[C@H](Cc1ccccc1)NC(=O)[C@H](Cc1ccccc1)NC(C)=O)C(N)=O`, the pKi on Substance-P receptor is under 5.00. The compound `CCCN1C(=O)C2NC(c3ccc(OCC(=O)NCCN)cc3)=NC2N(CCC)C1=O` (stereo not given) had a pKi at Substance-P receptor of under 5.00. On Adenosine receptor, this compound registered a Ki of 1.2 nM. With `CSCC[C@H](NC(=O)[C@H](CC(C)C)NC(=O)CNC(=O)[C@H](Cc1ccccc1)NC(=O)[C@H](Cc1ccccc1)NC(=O)[C@H](CCC(N)=O)NC(=O)[C@H](CCC(N)=O)NC(=O)[C@@H]1CCCN1C(=O)[C@H](CCCCN)NC(=O)[C@@H]1CCCN1C(=O)[C@@H](N)CCCN=C(N)N)C(N)=O` [SUBSTANCE P], at Adenosine receptor, the Ki was over 30000 nM. Compound `CCCN1C(=O)C2NC(c3ccc(OCC(=O)NCCNC(=O)C(N)CC(=O)N[C@@H](Cc4ccccc4)C(=O)N[C@@H](Cc4ccccc4)C(=O)NCC(=O)N[C@@H](CC(C)C)C(=O)N[C@@H](CCSC)C(N)=O)cc3)=NC2N(CCC)C1=O` (stereo not given in full) (X1-FFGLM-NH2) gave a pKi on Substance-P receptor of 6.52. The compound further came in with a Ki at Adenosine receptor of 35 nM. `CSCC[C@@H](NC(=O)[C@H](CC(C)C)NC(=O)CNC(=O)[C@H](Cc1ccccc1)NC(=O)[C@@H](N)Cc1ccccc1)C(N)=O`: the inhibitory constant (Ki) on Adenosine receptor is over 30000 nM. Same read-out and setting: the figure for `O=C(O)Cc1ccc(Nc2ncnc3c2ncn3C2O[C@H](CO)[C@@H](O)[C@H]2O)cc1` (stereo not given in full) is 210 nM; for `CCCN1C(=O)C2NC(c3ccc(OCC(=O)NCCNC(=O)C(N)CC(N)=O)cc3)=NC2N(CCC)C1=O` (stereo not given) it is 4.3 nM. Turning to `CCCN1C(=O)C2NC(c3ccc(OCC(=O)NCCNC(=O)CN)cc3)=NC2N(CCC)C1=O` (stereo not given), the pKi at Substance-P receptor was under 5.00. Further, the inhibitory constant (Ki) at Adenosine receptor amounted to 2.1 nM. On the same counts, the results for `CSCC[C@H](NC(=O)[C@H](CC(C)C)NC(=O)CNC(=O)[C@H](Cc1ccccc1)NC(=O)[C@H](Cc1ccccc1)NC(=O)Cc1ccc(Nc2ncnc3c2ncn3[C@@H]2O[C@H](CO)[C@@H](O)[C@H]2O)cc1)C(N)=O` (X2-FFGLM-NH2) are 5.70 and 16 nM. At Adenosine receptor, `CSCC[C@@H](NC(=O)[C@H](CC(C)C)NC(=O)CNC(=O)[C@H](Cc1ccccc1)NC(=O)[C@H](Cc1ccccc1)NC(C)=O)C(N)=O` returned an inhibition constant (Ki) of over 30000 nM. In turn, `CCCN1C(=O)C2NC(c3ccc(OCC(=O)NCCNC(=O)C(N)CC(=O)N[C@@H](Cc4ccccc4)C(=O)N[C@@H](Cc4ccccc4)C(=O)NCC(N)=O)cc3)=NC2N(CCC)C1=O` (stereo not given in full) had a pKi at Substance-P receptor of under 5.00. Further, the inhibition constant Ki on Adenosine receptor came out at 30 nM. H-QQFFGLM-NH2 had a pKi on Substance-P receptor of 6.74. At Substance-P receptor, `CSCC[C@H](NC(=O)[C@H](CC(C)C)NC(=O)CNC(=O)[C@H](Cc1ccccc1)NC(=O)[C@@H](N)Cc1ccccc1)C(N)=O` showed a negative logarithm of the Ki (pKi) of under 5.00.

The record behind these values is ChEMBL document CHEMBL1123824 (J Med Chem, 1987).
